The values below come from patent publication US4515951A, “Preparation of 5,6,7,7a-tetrahydro-4H-thieno[3,2-c]pyridin-2-one compounds” (Sanofi, priority 1980, dated 1985).

The nature of data set [1]: in vivo. To be noted: mouse, iv. From the text:
This study was concerned with the acute, chronic, sub-chronic and delayed toxicities.

Data set [2] concerns platelet aggregation by ADP. Briefly: inhibiting action on platelet aggregation by ADP (ADP TEST), plasma of orally treated rats. It is filed as in vivo, Wistar rats. The note with it: Rattus norvegicus; for inhibition at 5 mg/kg / inhibition at 12.5 mg/kg / inhibition at 25 mg/kg / inhibition at 50 mg/kg / inhibition at 100 mg/kg: read-out: Percentage inhibition of platelet aggregation (ADP test). Here is the method: (§1) A sample of blood is taken from the jugular vein of Wistar rats, which have previously been treated with the compound to be tested. From this blood, which is citrate-treated and centrifuged, there is reconstituted a plasma containing 600,000±20,000 platelets per mm^3, which is employed in all the aggregation measurements.
(§2) 0.4 ml. of plasma is treated in a siliconised tube provided with a bar magnet which is also siliconised. The tube is introduced into an aggregometer connected to an apparatus with which variations in optical density can be recorded. When the light transmission has reached a stable value, 0.5 ml. of a solution containing […] of ADP (adenosine diphosphate)is introduced into the tube.
(§3) Platelet aggregation then causes an increase in light transmission, followed by a reduction in light transmission due to the subsequent disaggregation stage.
(§4) The maximum variation in optical density thus determined relative to that of a plasma free of platelets characterises the intensity of aggregation.
(§5) The measurements are carried out during the 2 hours which follow the taking of the blood sample, this sample being taken 3 hours after treatment with the derivative to be tested.
(§6) Groups of 20 rats were used. Each group received a single dose of the compound to be tested, administered orally, the same compound being administered at different doses ranging from 5 mg./kg. to 100 mg./kg.
(§7) The results obtained are given in the following Tables II and III, which show the percentage inhibition of platelet aggregation obtained relative to the control experiment, 3 hours after treatment with the compound to be tested.

For data set [3], the system named is platelet aggregation by collagen. Briefly: inhibiting action on platelet aggregation by collagen (COLLAGEN TEST), plasma of orally treated rats. It is filed as in vivo, Wistar rats. To be noted: Rattus norvegicus, read-out: Percentage inhibition of platelet aggregation (collagen test). Here is the method: as §1, §2, §3, §4, §5
The ADP solution is replaced by a solution of collagen (extracted from cattle tendons).
as §6, §7

Data set [4] has as its system platelet aggregation induced by ADP. Kind of data set: kinetic study of platelet aggregation induced by ADP (Born's nephelometric method, Bryston aggregometer), intraperitoneal. In kind it is in vivo. To be noted: rats. Here is the method: A further experiment was carried out, relating to the kinetic study of the compounds of the present invention.
The blood sample is taken 10 minutes and 60 minutes after this administration and is centrifuged to obtain a plasma enriched in platelets.
The platelet aggregation in the plasma, induced by ADP is measured in a Bryston aggregometer, using Born's nephelometric method.

Data set [5] has as its system experimental thrombosis. Kind of data set: anti-thrombosis activity, experimental thrombosis caused by extracorporal circulation (Umetsu and Sonoi). To be noted: for Average weight of the thrombi: control (5% gum arabic) 30.41. In kind it is in vivo, rats. Here is the method: This activity was studied by the experimental thrombosis method caused by extracorporal circulation, described by Umetsu and Sonoi (Thrombos. Haemost., 39, […]).
The left jugular vein and the right external carotid are exposed in rats anaesthetised by an intraperitoneal injection of pentobarbital. A shunt is provided which consists of a central catheter and two lateral catheters. A natural white silk thread is introduced into the central part and the circulation is restarted for 20 minutes. After stopping the circulation by clamping, the thread is gently withdrawn and weighed immediately.
Treatment was carried out for 48 hours, 24 hours and 2 hours before the start of the blood circulation in shunt.
The test compounds were administered orally to different groups of animals in the form of a suspension in 10 ml. of 5% gum arabic/kg., the doses used being 12.5 mg./kg., 25 mg./kg., 50 mg./kg., 100 mg./kg. and 200 mg./kg.

Setting [6] is: 10 minutes after 100 mg/kg intraperitoneal in propylene glycol.
The mark [7] stands for this setting: 60 minutes after 100 mg/kg intraperitoneal in propylene glycol.
The mark [8] stands for this setting: 12.5 mg/kg oral, 48, 24 and 2 hours before.
[9] abbreviates: 25 mg/kg oral, 48, 24 and 2 hours before.
[10] abbreviates: 50 mg/kg oral, 48, 24 and 2 hours before.
Setting [11] is: 100 mg/kg oral, 48, 24 and 2 hours before.
The mark [12] stands for this setting: 5 mg/kg oral, single dose, 3 hours after treatment, relative to control.
The mark [13] stands for this setting: 12.5 mg/kg oral, single dose, 3 hours after treatment, relative to control.
[14] abbreviates: 25 mg/kg oral, single dose, 3 hours after treatment, relative to control.
[15] abbreviates: 50 mg/kg oral, single dose, 3 hours after treatment, relative to control.
The mark [16] stands for this setting: 100 mg/kg oral, single dose, 3 hours after treatment, relative to control.

SMILES strings stand for the structures. Like-named read-outs stand apart in the source and are kept apart here.

Regarding `O=C1C=C2CN(Cc3ccccc3Cl)CCC2S1` (stereo not drawn) [Derivative 1, 5-(o-Chlorobenzyl)-5,6,7,7a-tetrahydro-4H-thieno-[3,2-c]pyridin-2-one], the 50% lethal dose (LD50) at 24 h in data set [1] came out at 113 mg/kg. For the same compound, the inhibition at 5 mg/kg worked out at 51% in data set [2] (po, 3 h) and 16.8% in data set [3] (po, 3 h). The inhibition at 12.5 mg/kg worked out at 83.6% in data set [2] (po, 3 h) and 46.8% in data set [3] (po, 3 h). In addition, the inhibition at 25 mg/kg in data set [2] (po, 3 h) was 83.7%; in data set [3] (po, 3 h) it was 86.7%. The inhibition at 50 mg/kg in data set [2] (po, 3 h) amounted to 84%; in data set [3] (po, 3 h) it was 89.6%. The inhibition at 100 mg/kg was determined as 84.1% in data set [2] (po, 3 h) and 89.8% in data set [3] (po, 3 h). The results for the “percentage inhibition as a function of time (platelet aggregation, ADP)” value in data set [4] (setting [6]) and in data set [4] (setting [7]) were 42% and 97%, respectively. For the same compound, the “Average weight of the thrombi” value in data set [5] (setting [8]) turned out to be 27.45 mg; in data set [5] (setting [9]) it was 12.21 mg; in data set [5] (setting [10]), 6.01 mg; in data set [5] (setting [11]), 4.76 mg.

Consider `Clc1ccccc1CN1CCc2sccc2C1` [Reference compound A, 5-(2-chlorobenzyl)-4,5,6,7-tetrahydrothieno[3,2-c]pyridine, reference compound], for which the inhibition at 5 mg/kg in data set [2] (setting [12]) and in data set [3] (setting [12]) was 0% in each case. The inhibition at 12.5 mg/kg in data set [2] (setting [13]) and in data set [3] (setting [13]) was 0% in each case. Also, the inhibition at 25 mg/kg in data set [2] (setting [14]) came to 0%; in data set [3] (setting [14]), 40.9%. The inhibition at 50 mg/kg worked out at 34.6% in data set [2] (setting [15]) and 46.8% in data set [3] (setting [15]). The inhibition at 100 mg/kg was 63.2% in data set [2] (setting [16]) and 80.1% in data set [3] (setting [16]). The minimal effective dose in data set [2] (3 h, oral, rats, stated for the aggregation tests (ADP and collagen), read-out: dose at which significant (or similar) platelet aggregation inhibiting activity manifests itself) stood at 100 mg/kg. Also, the “percentage inhibition as a function of time (platelet aggregation, ADP)” value in data set [4] (setting [6]) was determined as 22%; in data set [4] (setting [7]), 39%. For the same compound, the “Average weight of the thrombi” value in data set [5] (setting [8]) amounted to 30.45 mg; in data set [5] (setting [9]), 30.09 mg; in data set [5] (setting [10]) it was 28.86 mg; in data set [5] (setting [11]) it was 23.04 mg; in data set [5] (200 mg/kg oral, 48, 24 and 2 hours before), 23.13 mg. For the same compound, the anti-thrombosis action entry in data set [5] (even at high doses) is “no anti-thrombosis action whatsoever”.

The LD50 is the dose expected to kill half of the subjects tested. For orientation: inhibition means the share of the control response that was lost under treatment.
